The results in this text go back to US6743806B2, “Active oxygen scavenger” (Otsuka Pharmaceutical Company, Limited, priority 2002, dated 2004).

SMILES strings stand for the structures.

Assay [1] can be described thus: Peroxyl radical absorbing capacity (PRAC) assay. To be noted: 1 PRAC unit is the value of 1 μM of trolox, β-phycoerythrin fluorescence, 37° C. Here is the method:
According to the method described by Cao et al. (Cao G, Alessio HM, Cutler RG (1993), Oxygen-radical absorbance capacity assay for antioxidants, Free Radic. Biol. Med 14: 303-311), the assay is based on production of peroxyl radicals by 2,2′-azobis(2-amidinopropane) hydrochloride (3 mM), a peroxyl radical generator, with subsequent oxidation of the reporter protein, β-phycoerythrin (16.7 nM) in 24 well plates. Into each sample well, either 20 μl of phosphate buffer or 20 μl of each concentration of cilostazol was included. After adding 2,2′-azobis(2-amidinopropane) hydrochloride, the reaction mixture was incubated at 37° C. Loss of fluorescence was measured every 5 minutes at the emission of 590 nm and excitation of 485 nm using Fluorescence Plate Reader (Bio-Tek Instruments, Inc., Winooski, USA). The PRAC value of the compound is reflected in the increase of area under curve of fluorescence versus time. Trolox was used as a reference for PRAC assay. The fluorescence just prior to addition of the 2,2′-azobis(2-amidinopropane) hydrochloride was estimated as the 100% value for that sample. The PRAC values were calculated by the following equation: [formula]
where 1 PRAC unit is the value of 1 μM of trolox.
The time-dependent decrease of β-phycoerythrin fluorescence in the absence (blank) and the presence of different concentrations of cilostazol is shown, in the accompanying FIG. 2. […]

Assay [2] in a line: Hydroxyl radical scavenging efficacy (Fenton system, DMPO spin trap, EPR). As for the experimental part: Hydroxyl radical scavenging efficacy of cilostazol was determined in air-saturated phosphate buffer (10 mM) at room temperature. The reaction was initiated by addition of a small aliquot (5 μL) of Fe^2+ solution (10 mM FeSO4 in 10 mM HCl) to a buffer containing cilostazol, H2O2 (0.12 mM) and 5,5-dimethyl-1-pyrroline-N-oxide (DMPO) (1 mM). The sample was transferred quickly to flat quartz electron paramagnetic resonance (EPR) cell, and measurements were started immediately.
The EPR spectra of the spin-adduct of DMPO with the hydroxyl radical: DMPO/.OH was observed when DMPO reacted with hydroxyl radical generated by the Fenton system. The EPR spectra (.OH) are shown in the accompanying FIG. 1. Scavenging of hydroxyl radicals was confirmed by using catalase (0.510 U/ml) (data not shown).

Consider `O=C1CCc2cc(OCCCCc3nnnn3C3CCCCC3)ccc2N1` [cilostazol, 6-[4-(1-cyclohexyl-1H-tetrazol-5-yl)butoxy]-3,4-dihydrocarbostyril], for which the results for the PRAC value in assay [1] (10^−4 M cilostazol) and in assay [1] (10^−6 M cilostazol) were 1.938 unit and 1.325 unit, respectively. Moreover, the “DMPO/.OH adduct EPR signals” value in assay [2] (10^−5 M of cilostazol) is “almost ameliorated”. Moreover, in assay [2] (DMPO/.OH adduct formation, Fenton system, phosphate buffer 10 mM, room temperature, EPR, read-out: concentration required for inhibiting hydroxyl radical formation (IC50)), the IC50 came to 2580 ± 70 nM.
